{"source": "patent US20130177609A1", "about": "“Compositions and Methods for Increasing Bioavailability of Topical Ophthalmic Drugs” (priority 2008, published 2013)", "origin": "cited, not measured here"}
{"conditions": "cited from earlier work", "units": {"Approximate Solubility in Water": "µg/mL"}}
{"compound": "CCc1cccc2c3c([nH]c12)C(CC)(CC(=O)O)OCC3", "note": "(stereo not drawn) [etodolac]", "Approximate Solubility in Water": 16}
{"compound": "CC(C)OC(=O)CCC/C=C\\C[C@@H]1[C@@H](CC[C@@H](O)CCc2ccccc2)[C@H](O)C[C@@H]1O", "note": "[latanoprost]", "Approximate Solubility in Water": 52}
{"compound": "Brc1c(NC2=NCCN2)ccc2nccnc12", "note": "[brimonidine]", "Approximate Solubility in Water": 1500}
{"compound": "NC(=O)Cc1cccc(C(=O)c2ccccc2)c1N", "note": "[nepafenac]", "Approximate Solubility in Water": "20 to 50"}
{"compound": "CN1C(C(=O)Nc2ccccn2)=C(O)c2ccccc2S1(=O)=O", "note": "[piroxicam]", "Approximate Solubility in Water": 30}
{"compound": "Nc1c(CC(=O)O)cccc1C(=O)c1ccc(Br)cc1", "note": "[bromfenac]", "Approximate Solubility in Water": 13}
{"compound": "CC(C)(C)NC[C@H](O)COc1cccc2c1CCCC2=O", "note": "[levobutonol]", "Approximate Solubility in Water": 250}
{"compound": "C[C@@H]1C[C@H]2[C@@H]3CCC4=CC(=O)C=C[C@]4(C)[C@@]3(F)[C@@H](O)C[C@]2(C)[C@@]1(O)C(=O)CO", "note": "[dexamethasone]", "Approximate Solubility in Water": 9}
{"compound": "CC(C)NCC(O)COc1ccc(CCOCC2CC2)cc1", "note": "(stereo not drawn) [betaxolol]", "Approximate Solubility in Water": 450}
